According to patent US20260273072A1, “NOVEL PLK1 DEGRADATION INDUCING COMPOUND” (UPPTHERA, INC., priority 2023, published 2026):

Columns and labels:
Assay type in all cases: cell-based
MRC-5 cell line = assay: Cell viability assay for MRC-5 cell line (EZ-Cytox); settings: Homo sapiens, MRC5, 120 h; MRC-5 normal cell line, 5 days, 10000 nM to 1.52 nM; read-out: Activity: IC50 value, cell viability, MRC-5 cell line (Exemplary Compounds)
Procedure: 4. Cell Viability Assay for MRC-5 Cell Line
(1) Culture of MRC-5 Cell Line
The MRC-5 cell line was purchased from KCLB. Passage of cultured cells was maintained within P15.
(2) Treatment of Compounds of the Present Invention
Then, it was cultured in 37° C. CO2 incubator (Thermo Fisher Scientific) for 5 days.
(3) Cytotoxicity Experiment
CO2 incubator for 4 hours.

NCI-H69 cell line = assay: Cell viability assay for NCI-H69 cell line (EZ-Cytox); settings: Homo sapiens, NCI-H69, 120 h; H69 cells, 5 days, 3000 nM to 0.46 nM
Procedure: (§1) 3. Cell Viability Assay for NCI-H69, NCI-H526 Cell Lines
(§2) (1) Culture of NCI-H69, NCI-H526 Cell Lines
(§3) The NCI-H69 (hereafter H69) and NCI-H526 (hereafter H526) cell lines were purchased from KCLB.
(§4) (2) Treatment of Compounds of the Present Invention and Method of Cell Viability Assay
(§5) After treating the compound to each well to make the total volume of 200 μl, it was cultured in a CO2 incubator (Thermo Fisher Scientific) for 5 days. […] The absorbance of the completely cultured sample was measured by setting the wavelength of a plate reader (BMG Labtech) to […], and was measured after shaking for 3 minutes in a plate reader before measurement.
(§6) The results of cell viability for H526 and H69 cell line are shown in Table 3 and Table 4, respectively.
(§7) In Table 3 and Table 4, Activity represents IC50 value of each Exemplary Compound treatment group to H526 and H69 cell line, respectively (A: <30 nM, B: <50 nM, C: <100 nM, D: <200 nM, E: <400 nM).

NCI-H526 cell line = assay: Cell viability assay for NCI-H526 cell line (EZ-Cytox); settings: Homo sapiens, NCI-H526, 120 h; H526 cells, 5 days, 3000 nM to 0.46 nM
Procedure: as §1, §2, §3, §4, §5, §6, §7

PLK1 = target: T1, PLK1 (Homo sapiens, UniProt P53350); assay: Luciferase assay for PLK1 in HeLa LgBit (Plk1-HiBit KI) cell line; settings: 300 nM compound, luminescence after 9 hours
T1 construct: endogenous in cells; host or cells: HeLa LgBit (Plk1-HiBit KI): HeLa stably expressing LgBit, with a CRISPR/Cas9 knock-in of HiBit at the endogenous PLK1 locus
Procedure: 2. Luciferase Assay for PLK1
(1) Preparation and Culture of HeLa LgBit (Plk1-HiBit KI) Cell Line
A HeLa cell line in which the LgBit vector was transfected and expressed stably was prepared. Then, after constructing gRNA and donor to express the HiBit amino acid sequence behind the C-terminal of the PLK1 gene, which was inherent in the cell, it was inserted into the cell together with a vector capable of expressing CRISPR/Cas9. Only the cells in which the insertion was completed and knock-in had progressed were selected, sub-cultured and used.
For cell culture, DMEM (Gibco), FBS (Gibco), PS (Gibco), […] cell culture dish (SPL), […] cell culture dish (SPL), 96-well culture plate (SPL), PBS pH 7.4 (Gibco), TrypLE™ Express (Gibco), Cell counter (Thermo Fisher Scientific) and 0.4% Trypan Blue Solution (DYNEBIO) were used.
(2) Treatment of Compounds of the Present Invention and Method of Luciferase Assay
In the case of HeLa LgBit (Plk1-HiBit KI), the compounds were treated after being released after thymidine block, and the process was as follows. Thymidine (Sigma-Aldrich) was completely dissolved in ddH2O and used in the experiment. For thymidine block, the products were treated with 2 mM of thymidine and then incubated for 24 hours. For release and chemical treatment, the medium was suctioned and washed with 1×PBS. TrypLE™ (Gibco) was added and incubated in 37° C. CO2 incubator (Thermo Fisher Scientific) for 5 mins. Cells neutralized by adding complete media were counted through a counter. For each well of a 96-well culture plate (SPL), 3.3×10^4 cells and a total medium volume of 150 μl were seeded and incubated in a CO2 incubator.
Each cell line was incubated in a CO2 incubator for 18 hours, and Endurazine (Promega, Cat. No. N257B) was added to each well to make up 4% of the total volume. After adding compounds of Examples in a 96-well white plate (SPL) to a concentration of 300 nM, the wavelength of the plate reader (BMG Labtech, CLARIOstar Plus) was set to 470-480 nm, and then the luminescence was tracked in real time.
In Table 2, Activity represents the ratio of the luminescence value of each Exemplary Compound treatment group to DMSO treatment group (+++: <0.3, ++: <0.5, +: <0.7).

T1 sequence (P53350 whole entry): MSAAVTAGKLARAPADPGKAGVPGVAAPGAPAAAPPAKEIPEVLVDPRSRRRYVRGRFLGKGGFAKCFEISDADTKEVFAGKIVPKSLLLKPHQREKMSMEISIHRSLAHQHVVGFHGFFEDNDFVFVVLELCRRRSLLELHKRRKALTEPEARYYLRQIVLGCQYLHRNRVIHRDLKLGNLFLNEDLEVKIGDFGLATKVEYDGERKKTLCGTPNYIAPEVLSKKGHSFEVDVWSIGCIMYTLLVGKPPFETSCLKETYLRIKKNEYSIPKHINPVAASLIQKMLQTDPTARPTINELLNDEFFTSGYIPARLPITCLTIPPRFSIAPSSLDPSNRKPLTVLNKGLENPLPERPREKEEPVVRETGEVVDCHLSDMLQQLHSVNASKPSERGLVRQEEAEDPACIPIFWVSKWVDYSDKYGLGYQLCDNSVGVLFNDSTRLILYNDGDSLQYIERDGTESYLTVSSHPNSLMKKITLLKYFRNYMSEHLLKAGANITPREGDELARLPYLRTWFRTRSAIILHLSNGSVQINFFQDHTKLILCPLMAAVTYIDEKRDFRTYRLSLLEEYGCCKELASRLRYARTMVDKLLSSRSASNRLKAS

`COc1cc(C(=O)NC2CCC(N(C)CC3CCN(c4ccc(C5CCC(=O)NC5=O)cc4C)CC3)CC2)ccc1Nc1ncc2c(n1)N(C1CCCC1)CC(F)(F)C(=O)N2C` (stereo not shown) [Compound 6, 4-((9-cyclopentyl-7,7-difluoro-5-methyl-6-oxo-6,7,8,9-tetrahydro-5H-pyrimido[4,5-b][1,4]diazepin-2-yl)amino)-N-((1r,4r)-4-(((1-(4-(2,6-dioxopiperidin-3-yl)-2-methylphenyl)piperidin-4-yl)methyl)(methyl)amino)cyclohexyl)-3-methoxybenzamide] was tested, and the IC50 (MRC-5 cell line) was > 10000 nM, the IC50 (NCI-H69 cell line) was < 50 nM and the IC50 (NCI-H526 cell line) was < 100 nM. For the same compound, the “Activity: ratio of the luminescence value of compound treatment group to DMSO treatment group” value (from here on “Activity: ratio”) (PLK1) was “+++ (+++: <0.3)”.
For `COc1cc(C(=O)NN2CCC(CCN3CCN(c4cc(OC)c(C5CCC(=O)NC5=O)cc4F)CC3)CC2)ccc1Nc1ncc2c(n1)N(C(C)C)CC(F)(F)C(=O)N2C` (stereo not shown) [Compound 7, 4-((7,7-difluoro-9-isopropyl-5-methyl-6-oxo-6,7,8,9-tetrahydro-5H-pyrimido[4,5-b][1,4]diazepin-2-yl)amino)-N-(4-(2-(4-(4-(2,6-dioxopiperidin-3-yl)-2-fluoro-5-methoxyphenyl)piperazin-1-yl)ethyl)piperidin-1-yl)-3-methoxybenzamide], the IC50 (MRC-5 cell line) was > 10000 nM, the IC50 (NCI-H69 cell line) was < 50 nM and the IC50 (NCI-H526 cell line) was < 50 nM. For the same compound, the “Activity: ratio” value (PLK1) was “++ (++: <0.5)”.
With `COc1cc(C(=O)N[C@H]2CC[C@H](N(C)CC3CCN(c4cccc(N5CCC(=O)NC5=O)c4)CC3)CC2)ccc1Nc1ncc2c(n1)N(C1CCCC1)CC(F)(F)C(=O)N2C` [Compound 8, 4-((9-cyclopentyl-7,7-difluoro-5-methyl-6-oxo-6,7,8,9-tetrahydro-5H-pyrimido[4,5-b][1,4]diazepin-2-yl)amino)-N-((1r,4r)-4-(((1-(3-(2,4-dioxotetrahydropyrimidin-1 (2H)-yl)phenyl)piperidin-4-yl)methyl)(methyl)amino)cyclohexyl)-3-methoxybenzamide] the IC50 (MRC-5 cell line) was > 10000 nM, the IC50 (NCI-H69 cell line) was < 30 nM and the IC50 (NCI-H526 cell line) was < 30 nM. For the same compound, the “Activity: ratio” value (PLK1) was “++ (++: <0.5)”.
In the case of `COc1cc(C(=O)N[C@H]2CC[C@H](CN(C)C3CCN(c4ccc(C5CCC(=O)NC5=O)nc4)CC3)CC2)ccc1Nc1ncc2c(n1)N(C1CCCC1)CC(F)(F)C(=O)N2C` (stereo partly shown) [Compound 9, 4-((9-cyclopentyl-7,7-difluoro-5-methyl-6-oxo-6,7,8,9-tetrahydro-5H-pyrimido[4,5-b][1,4]diazepin-2-yl)amino)-N-((1r,4r)-4-(((1-(6-(2,6-dioxopiperidin-3-yl)pyridin-3-yl)piperidin-4-yl)(methyl)amino)methyl)cyclohexyl)-3-methoxybenzamide], the IC50 (MRC-5 cell line) is reported as > 10000 nM, the IC50 (NCI-H69 cell line) is reported as < 30 nM and the IC50 (NCI-H526 cell line) is reported as < 30 nM. The “Activity: ratio” value (PLK1) was “++ (++: <0.5)”.
In the case of `COc1cc(C(=O)NC2CCC(N(C)CC3CCN(c4ccc(C5CCC(=O)NC5=O)nc4)CC3)CC2)ccc1Nc1ncc2c(n1)N(C1CCCC1)CC(F)(F)C(=O)N2C` (stereo not shown) [Compound 10, 4-((9-cyclopentyl-7,7-difluoro-5-methyl-6-oxo-6,7,8,9-tetrahydro-5H-pyrimido[4,5-b][1,4]diazepin-2-yl)amino)-N-((1r,4r)-4-(((1-(6-(2,6-dioxopiperidin-3-yl)pyridin-3-yl)piperidin-4-yl)methyl)(methyl)amino)cyclohexyl)-3-methoxybenzamide], the IC50 (MRC-5 cell line) is reported as > 10000 nM, the IC50 (NCI-H69 cell line) is reported as < 30 nM and the IC50 (NCI-H526 cell line) is reported as < 30 nM. For the same compound, the “Activity: ratio” value (PLK1) was “+++ (+++: <0.3)”.
For `COc1cc(C(=O)NC2CCC(N(C)CC3CCN(c4ccc(C5CCC(=O)NC5=O)nc4)CC3)CC2)ccc1Nc1ncc2c(n1)N(C(C)C)CC(F)(F)C(=O)N2C` (stereo not shown) [Compound 11, 4-((7,7-difluoro-9-isopropyl-5-methyl-6-oxo-6,7,8,9-tetrahydro-5H-pyrimido[4,5-b][1,4]diazepin-2-yl)amino)-N-((1r,4r)-4-(((1-(6-(2,6-dioxopiperidin-3-yl)pyridin-3-yl)piperidin-4-yl)methyl)(methyl)amino)cyclohexyl)-3-methoxybenzamide], the IC50 (MRC-5 cell line) was > 10000 nM, the IC50 (NCI-H69 cell line) was < 30 nM and the IC50 (NCI-H526 cell line) was < 30 nM. For the same compound, the “Activity: ratio” value (PLK1) was “++ (++: <0.5)”.
`COc1cc(C(=O)NC2CCC(N(C)CC3CCN(c4cnc(C5CCC(=O)NC5=O)cc4C)CC3)CC2)ccc1Nc1ncc2c(n1)N(C)CC(F)(F)C(=O)N2C` (stereo not shown) [Compound 12, 4-((7,7-difluoro-5,9-dimethyl-6-oxo-6,7,8,9-tetrahydro-5H-pyrimido[4,5-b][1,4]diazepin-2-yl)amino)-N-((1r,4r)-4-(((1-(6-(2,6-dioxopiperidin-3-yl)-4-methylpyridin-3-yl)piperidin-4-yl)methyl)(methyl)amino)cyclohexyl)-3-methoxybenzamide] was tested, and the IC50 (MRC-5 cell line) was > 10000 nM, the IC50 (NCI-H69 cell line) was < 200 nM and the IC50 (NCI-H526 cell line) was < 200 nM. The “Activity: ratio” value (PLK1) was “+++ (+++: <0.3)”.
With `CCN1CC(F)(F)C(=O)N(C)c2cnc(Nc3ccc(C(=O)NC4CCC(N(C)CC5CCN(c6cnc(C7CCC(=O)NC7=O)cc6C)CC5)CC4)cc3OC)nc21` (stereo not shown) [Compound 13, N((1r,4r)-4-(((1-(6-(2,6-dioxopiperidin-3-yl)-4-methylpyridin-3-yl)piperidin-4-yl)methyl)(methyl)amino)cyclohexyl)-4-((9-ethyl-7,7-difluoro-5-methyl-6-oxo-6,7,8,9-tetrahydro-5H-pyrimido[4,5-b][1,4]diazepin-2-yl)amino)-3-methoxybenzamide] the IC50 (MRC-5 cell line) was > 10000 nM, the IC50 (NCI-H69 cell line) was < 30 nM and the IC50 (NCI-H526 cell line) was < 30 nM. The “Activity: ratio” value (PLK1) was “+++ (+++: <0.3)”.
For `COc1cc(C(=O)NC2CCC(N(C)CC3CCN(c4cnc(C5CCC(=O)NC5=O)cc4C)CC3)CC2)ccc1Nc1ncc2c(n1)N(C1CCCC1)CC(F)(F)C(=O)N2C` (stereo not shown) [Compound 14, 4-((9-cyclopentyl-7,7-difluoro-5-methyl-6-oxo-6,7,8,9-tetrahydro-5H-pyrimido[4,5-b][1,4]diazepin-2-yl)amino)-N-((1r,4r)-4-(((1-(6-(2,6-dioxopiperidin-3-yl)-4-methylpyridin-3-yl)piperidin-4-yl)methyl)(methyl)amino)cyclohexyl)-3-methoxybenzamide], the IC50 (MRC-5 cell line) was > 10000 nM, the IC50 (NCI-H69 cell line) was < 30 nM and the IC50 (NCI-H526 cell line) was < 30 nM. The “Activity: ratio” value (PLK1) was “+++ (+++: <0.3)”.
In the case of `COc1cc(C(=O)NC2CCC(N(C)CC3CCN(c4cnc(C5CCC(=O)NC5=O)cc4C)CC3)CC2)ccc1Nc1ncc2c(n1)N(C(C)C)CC(F)(F)C(=O)N2C` (stereo not shown) [Compound 15, 4-((7,7-difluoro-9-isopropyl-5-methyl-6-oxo-6,7,8,9-tetrahydro-5H-pyrimido[4,5-b][1,4]diazepin-2-yl)amino)-N-((1r,4r)-4-(((1-(6-(2,6-dioxopiperidin-3-yl)-4-methylpyridin-3-yl)piperidin-4-yl)methyl)(methyl)amino)cyclohexyl)-3-methoxybenzamide], the IC50 (MRC-5 cell line) is reported as > 10000 nM, the IC50 (NCI-H69 cell line) is reported as < 30 nM and the IC50 (NCI-H526 cell line) is reported as < 30 nM. For the same compound, the “Activity: ratio” value (PLK1) was “+++ (+++: <0.3)”.
